Peptide text beside a SMILES is read from it.
Tests used:
ED-B protein = biological target: T1, ED-B protein (Homo sapiens, UniProt P02751); assay: SPR (BIAcore) binding strength assay on immobilized biotin-EDB; conditions: for Kd: read-out: KD = Koff/Kon
T1 construct: Biopanning on ED-B domain
Procedure: The bipodal peptide binder found from BPB2EDB, BPB3EDB, and BPB4EDB maturation libraries were synthesized (Anygen, Korea). The affinity measurement was conducted using BIAcore X (Biacore AB, Uppsala, Sweden). 2,000 RU of biotin-EDB was allowed to flow on the streptavidin SA chip (Biacore) for immobilization. PBS (pH 7.4) was used as a running buffer, and kinetics at different concentrations was measured under a flow rate of 30 μl per minute. The affinity was calculated using BlAevaluation software (Biacore AB, Uppsala, Sweden).

streptavidin [1] = biological target: T2, streptavidin (Streptomyces avidinii, UniProt P22629); assay: Phage ELISA specificity to streptavidin versus BSA, ovalbumin and VEGF; type: binding; conditions: ovalbumin, VEGF coated wells
Procedure: In order to investigate specificities to streptavidin, of peptides (Strep_opti1 and Strep_opti2) obtained through sequencing, recombinant phages expressing these peptides were used to investigate specificities to streptavidin, BSA, ovalbumin, and VEGF. First, 5 μg/ml streptavidin, BSA, ovalbumin, and VEGF were put in a 96-well ELISA plate (50 μl per well), and then allowed to stand at 4° C. overnight. Next day, all the wells were washed three times with 0.1% PBST, and blocked at room temperature for 2 hrs using 2% BSA diluted with PBS. Then, the solution was discarded, followed by washing with 0.1% PBST three times. 800 μl of recombinant phages of each of Strep_opti1 and Strep_opti2 and 200 μl of 10% BSA were added thereto, and each 100 μl was dispensed into streptavidin, BSA, ovalbumin, and VEGF wells, followed by standing at 27° C. for 1 hr. After washing five times with 0.1% PBST solution, the HRP-conjugated anti-M13 antibody (GE Healthcare) was diluted to 1:1,000, and then the reaction was performed at 27° C. for 1 hr. After washing five times with 0.1% PBST, 100 μl of the TMB solution was dispensed into each well to induce a colorimetric reaction, and then the reaction was stopped by adding 100 μl of 1 M HCl. The absorbance was measured at 450 nm.

streptavidin [2] = biological target: T2, streptavidin; assay: SPR (BIAcore) binding assay of Strep_opti1 and control peptide on immobilized streptavidin; conditions: from KD values
Procedure: (§1) A streptavidin-binding peptide optimized peptide and an existing peptide were synthesized (Anygen). The affinity measurement was conducted using BIAcore X (Biacore AB, Uppsala, Sweden). Here, 2000 RU of streptavidin was allowed to flow on the CM5 chip (Biacore) for immobilization. PBS (pH 7.4) was used as a running buffer, and the kinetics at different concentrations was measured under a flow rate of 30 μl per minute. The affinity was calculated using BlAevaluation software (Biacore AB, Uppsala, Sweden).

VEGFR1 = VEGFR1 (Homo sapiens, UniProt P17948); assay: SPR (BIAcore) binding assay of VEGFR1_opti1 and control peptide on immobilized VEGFR1
Procedure: as §1, with “VEGFR1-binding” for “streptavidin-binding”, “7000” for “2000”, “VEGFR1” for “streptavidin”

T2 sequence (P22629 25-183): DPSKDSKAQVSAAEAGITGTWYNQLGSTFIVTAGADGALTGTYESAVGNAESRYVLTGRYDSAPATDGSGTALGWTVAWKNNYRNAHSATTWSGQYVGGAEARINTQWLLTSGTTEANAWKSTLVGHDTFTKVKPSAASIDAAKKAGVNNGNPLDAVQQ
T1 sequence (P02751 1271-1359 limits assumed): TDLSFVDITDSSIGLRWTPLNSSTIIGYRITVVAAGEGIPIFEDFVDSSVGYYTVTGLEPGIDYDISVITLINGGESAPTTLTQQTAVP
Chain of VEGFR1 (P17948 27-1338, species assumed): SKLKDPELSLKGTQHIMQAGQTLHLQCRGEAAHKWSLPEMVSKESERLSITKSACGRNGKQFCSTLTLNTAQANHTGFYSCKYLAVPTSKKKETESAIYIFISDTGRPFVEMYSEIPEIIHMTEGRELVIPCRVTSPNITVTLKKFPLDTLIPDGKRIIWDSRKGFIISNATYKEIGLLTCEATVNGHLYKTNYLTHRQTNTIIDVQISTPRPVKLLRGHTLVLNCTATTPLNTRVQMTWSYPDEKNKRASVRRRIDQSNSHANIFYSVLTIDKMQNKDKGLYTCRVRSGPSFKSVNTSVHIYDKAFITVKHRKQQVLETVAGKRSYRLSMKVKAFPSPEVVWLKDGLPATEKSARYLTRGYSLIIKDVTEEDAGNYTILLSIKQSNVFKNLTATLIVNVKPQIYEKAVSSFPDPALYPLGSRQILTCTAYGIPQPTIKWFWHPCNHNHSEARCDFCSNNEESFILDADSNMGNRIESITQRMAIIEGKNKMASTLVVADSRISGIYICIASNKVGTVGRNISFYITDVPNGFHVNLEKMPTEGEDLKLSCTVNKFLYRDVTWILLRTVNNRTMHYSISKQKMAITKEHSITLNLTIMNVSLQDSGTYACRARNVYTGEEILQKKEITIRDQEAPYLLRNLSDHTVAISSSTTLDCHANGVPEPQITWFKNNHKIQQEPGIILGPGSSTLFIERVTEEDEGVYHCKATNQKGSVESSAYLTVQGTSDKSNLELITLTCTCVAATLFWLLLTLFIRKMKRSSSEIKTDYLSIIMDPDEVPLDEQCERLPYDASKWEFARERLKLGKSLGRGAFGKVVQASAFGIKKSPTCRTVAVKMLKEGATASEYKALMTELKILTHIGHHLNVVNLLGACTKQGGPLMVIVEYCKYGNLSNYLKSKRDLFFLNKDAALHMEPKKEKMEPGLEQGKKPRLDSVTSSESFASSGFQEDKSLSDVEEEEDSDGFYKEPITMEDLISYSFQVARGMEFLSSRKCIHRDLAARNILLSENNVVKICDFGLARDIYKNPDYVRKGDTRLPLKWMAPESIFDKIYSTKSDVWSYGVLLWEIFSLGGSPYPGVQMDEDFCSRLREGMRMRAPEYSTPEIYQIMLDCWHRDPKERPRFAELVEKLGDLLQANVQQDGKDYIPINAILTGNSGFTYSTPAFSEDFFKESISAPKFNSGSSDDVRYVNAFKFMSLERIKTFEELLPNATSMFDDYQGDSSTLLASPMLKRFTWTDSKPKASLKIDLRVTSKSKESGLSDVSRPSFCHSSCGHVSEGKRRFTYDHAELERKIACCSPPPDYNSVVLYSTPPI

**Q.** CC[C@H](C)[C@H](NC(=O)CNC(=O)[C@H](CCCCN)NC(=O)[C@H](Cc1c[nH]c2ccccc12)NC(=O)[C@@H](NC(=O)[C@H](Cc1c[nH]c2ccccc12)NC(=O)[C@H](CCCCN)NC(=O)CNC(=O)[C@H](CC(N)=O)NC(=O)[C@H](CCC(=O)O)NC(=O)[C@H](Cc1c[nH]c2ccccc12)NC(=O)[C@@H](NC(=O)[C@H](Cc1c[nH]c2ccccc12)NC(=O)[C@H](CO)NC(=O)CNC(=O)[C@@H](NC(=O)[C@H](C)NC(=O)[C@H](CO)NC(=O)[C@H](CO)NC(=O)[C@H](CS)NC(=O)[C@@H](N)Cc1c[nH]cn1)C(C)C)[C@@H](C)O)[C@@H](C)O)C(=O)N[C@H](C(=O)N[C@@H](CCCNC(=N)N)C(=O)N[C@@H](CC(C)C)C(=O)N[C@@H](CCC(=O)O)C(=O)N[C@@H](CCC(N)=O)C(=O)O)[C@@H](C)CC [BPB1EDB] (H-HCSSAVGSWTWENGKWTWKGIIRLEQ-OH; N-terminus and C-terminus assumed) was tested. Which Kd (ED-B protein; SPR, target binding kinetics) did it give?
**A.** The Kd was 75 nM.

**Q.** For CC[C@H](C)[C@H](NC(=O)CNC(=O)[C@H](CCCCN)NC(=O)[C@H](Cc1c[nH]c2ccccc12)NC(=O)[C@@H](NC(=O)[C@H](Cc1c[nH]c2ccccc12)NC(=O)[C@H](CCCCN)NC(=O)CNC(=O)[C@H](CC(N)=O)NC(=O)[C@H](CCC(=O)O)NC(=O)[C@H](Cc1c[nH]c2ccccc12)NC(=O)[C@@H](NC(=O)[C@H](Cc1c[nH]c2ccccc12)NC(=O)[C@H](CO)NC(=O)CNC(=O)[C@H](CCC(N)=O)NC(=O)[C@@H](NC(=O)[C@@H]1CCCN1C(=O)[C@H](CO)NC(=O)[C@H](CO)NC(=O)[C@H](CS)NC(=O)[C@H](CO)NC(=O)[C@@H](N)Cc1c[nH]cn1)[C@@H](C)CC)[C@@H](C)O)[C@@H](C)O)C(=O)N[C@H](C(=O)N[C@@H](CCCNC(=N)N)C(=O)N[C@@H](CC(C)C)C(=O)N[C@@H](CCC(=O)O)C(=O)N[C@@H](CCC(N)=O)C(=O)N[C@@H](CCC(N)=O)C(=O)N1CCC[C@H]1C(=O)O)[C@@H](C)CC [BPB4EDB] (H-HSCSSPIQGSWTWENGKWTWKGIIRLEQQP-OH; N-terminus and C-terminus assumed), which “fold increase in affinity compared with BPB1” value (ED-B protein; through the optimization system) is on record?
**A.** Its value is 21 fold.

**Q.** With CC(C)[C@H](NC(=O)[C@H](CCC(N)=O)NC(=O)[C@@H]1CCCN1C(=O)[C@H](Cc1c[nH]cn1)NC(=O)[C@H](C)NC(=O)CNC(=O)[C@H](CCCCN)NC(=O)[C@H](Cc1c[nH]c2ccccc12)NC(=O)[C@@H](NC(=O)[C@H](Cc1c[nH]c2ccccc12)NC(=O)[C@H](CCCCN)NC(=O)CNC(=O)[C@H](CC(N)=O)NC(=O)[C@H](CCC(=O)O)NC(=O)[C@H](Cc1c[nH]c2ccccc12)NC(=O)[C@@H](NC(=O)[C@H](Cc1c[nH]c2ccccc12)NC(=O)[C@H](CO)NC(=O)CNC(=O)CNC(=O)CNC(=O)[C@H](CCCCN)NC(=O)[C@H](CCC(=O)O)NC(=O)[C@H](Cc1ccccc1)NC(=O)[C@H](CCC(N)=O)NC(=O)[C@@H]1CCCN1C(=O)[C@H](Cc1c[nH]cn1)NC(=O)[C@H](CO)NC(=O)[C@@H](N)Cc1c[nH]c2ccccc12)[C@@H](C)O)[C@@H](C)O)C(=O)N[C@@H](CCCNC(=N)N)C(=O)O [Strep_opti1] (H-WSHPQFEKGGGSWTWENGKWTWKGAHPQVR-OH; N-terminus and C-terminus assumed) as the compound, how does the “specificity (phage ELISA absorbance at 450 nm)” value (streptavidin [1]) read?
**A.** The value was “specifically bind to streptavidin”.

**Q.** And the “fold increase in affinity compared with control peptide WSHPQFEK” value (streptavidin [2])?
**A.** Its value is 1223 fold.

**Q.** How did the Koff (ED-B protein; SPR, target binding kinetics) turn out when CC[C@H](C)[C@H](NC(=O)CNC(=O)[C@H](CCCCN)NC(=O)[C@H](Cc1c[nH]c2ccccc12)NC(=O)[C@@H](NC(=O)[C@H](Cc1c[nH]c2ccccc12)NC(=O)[C@H](CCCCN)NC(=O)CNC(=O)[C@H](CC(N)=O)NC(=O)[C@H](CCC(=O)O)NC(=O)[C@H](Cc1c[nH]c2ccccc12)NC(=O)[C@@H](NC(=O)[C@H](Cc1c[nH]c2ccccc12)NC(=O)[C@H](CO)NC(=O)CNC(=O)[C@H](CCC(N)=O)NC(=O)[C@@H](NC(=O)[C@@H]1CCCN1C(=O)[C@H](CO)NC(=O)[C@H](CO)NC(=O)[C@@H](N)CS)[C@@H](C)CC)[C@@H](C)O)[C@@H](C)O)C(=O)N[C@H](C(=O)N[C@@H](CCCNC(=N)N)C(=O)N[C@@H](CC(C)C)C(=O)N[C@@H](CCC(=O)O)C(=O)N[C@@H](CCC(N)=O)C(=O)O)[C@@H](C)CC [peptide 3] (H-CSSPIQGSWTWENGKWTWKGIIRLEQ-OH; N-terminus and C-terminus assumed) was run?
**A.** Its Koff is 5.1 × 10^−4 S^−1.

**Q.** What about the Kon (ED-B protein; SPR, target binding kinetics) of the same compound?
**A.** The Kon was 3.0 × 10^4 M^−1S^−1.

**Q.** What about the Kd (ED-B protein; SPR, target binding kinetics) of the same compound?
**A.** Its Kd is 16 nM.

**Q.** “GNQWFIGGGSWTWENGKWTWKGRIPKNR (VEGFR1_opti1)” was tested. Which SPR response increase (VEGFR1; at 5 μM peptide) did it give?
**A.** Its SPR response increase is 45 RU.

**Q.** What about the “fold increase in affinity versus control peptide” value (VEGFR1; from RU at 5 μM versus 200 μM) of the same compound?
**A.** The value was “about 360 fold”.

**Q.** “WSHPQFEKGGGSWTWENGKWTWKG TLIHPM [Strep_opti2]” was tested. Which “specificity (phage ELISA absorbance at 450 nm)” value (streptavidin [1]) did it give?
**A.** The value was “specifically bind to streptavidin”.
